Patent publication US11766468B2, “Method of treating prostate cancer with GnRH antagonist” (priority 2012, dated 2023)
Square brackets hold non-standard residues; d marks the D form. Peptide text beside a SMILES is read from it. * marks the point of attachment. dPhe(4-NHCONH2) = NC(=O)Nc1ccc(C[C@@H](N)C(=O)O)cc1; Dihydroorotyl(S) = O=C1C[C@@H](C(=O)*)NC(=O)N1; dPhe(4-Cl) = N[C@H](Cc1ccc(Cl)cc1)C(=O)O; Phe(4-NH2) = Nc1ccc(C[C@H](N)C(=O)O)cc1; d2Nal = N[C@H](Cc1ccc2ccccc2c1)C(=O)O; Lys(iPr) = CC(C)NCCCC[C@H](N)C(=O)O; d3Pal = N[C@H](Cc1cccnc1)C(=O)O

Test system: prostate-specific antigen (PSA)
Experiment: CS21: PSA response and PSA failure
Assay type: in vivo, human
Conditions: for Day 14 percentage change in PSA, median / Day 28 percentage change in PSA, median: Day 0 dose degarelix 240@40; for median percentage change (reduction) in PSA from baseline: leuprolide 7.5 mg with anti-androgen flare protection; for median percentage reduction in PSA from baseline: leuprolide 7.5 mg without anti-androgen
Experimental: The secondary efficacy endpoints were: the proportion of patients with testosterone surge during the first 2 weeks of treatment; the proportion of patients with testosterone level ≤0.5 ng/mL at day 3; the percentage change in PSA from baseline to day 28; the probability of testosterone ≤0.5 ng/mL from day 56 through day 364; the levels of serum testosterone, LH, FSH and PSA over time through the study; the time to PSA failure, defined as two consecutive increases of 50%, and at least 5 ng/mL as compared to nadir; degarelix concentration over the first month and trough levels at day 308 and 336; the frequency and size of testosterone increases at day 255 and/or 259 compared to the testosterone level at day 252; the quality of life on days 0, 28, 84, 168 and end of study visit; the frequency and intensity of hot flushes experienced (scored daily from study start until end of study visit. In addition, two further secondary endpoints were added: the probability of sufficient testosterone response from day 28 through day 364 (a patient was considered to have insufficient testosterone response if they had one testosterone value >1.0 ng/mL or two consecutive testosterone values >0.5 ng/mL at day 28 onwards); and the percentage change in PSA from baseline to Day 14.
All secondary efficacy endpoints were analyzed for both the ITT and PP analysis sets, unless otherwise stated. The proportion of patients with testosterone surge during the first 2 weeks of treatment was analyzed using Fisher's exact test. Fisher's exact test was also used to analyze the proportion of patients with testosterone level ≤0.5 ng/mL at day 3. The percentage change in PSA from baseline to day 28 endpoint was analyzed by a Wilcoxon test.
The secondary endpoints; probability of testosterone ≤0.5 ng/mL from Day 56 through Day 364, time to PSA failure and probability of sufficient testosterone response from Day 28 through Day 364 were analyzed by the Kaplan-Meier method.

[1] = age <65, degarelix 240@40/80@20, LUPRON DEPOT 7.5 mg
[2] = age >=75, degarelix 240@40/80@20, LUPRON DEPOT 7.5 mg
[3] = degarelix 240/80 mg, leuprolide 7.5 mg

CCNC(=O)[C@@H]1CCCN1C(=O)[C@H](CCCNC(=N)N)NC(=O)[C@H](CC(C)C)NC(=O)[C@@H](CC(C)C)NC(=O)[C@H](Cc1ccc(O)cc1)NC(=O)[C@H](CO)NC(=O)[C@H](Cc1c[nH]c2ccccc12)NC(=O)[C@H](Cc1c[nH]cn1)NC(=O)[C@@H]1CCC(=O)N1 [Leuprolide, leuprolide, reference compound]
Day 14 percentage change in PSA, median (PCA = Localized): −13.2% | Day 28 percentage change in PSA, median (PCA = Localized): −55.7% | Day 14 percentage change in PSA, median (PCA = Metastatic): −25.3% | Day 28 percentage change in PSA, median (PCA = Metastatic): −79.7% | Day 14 percentage change in PSA, median (PCA Locally advanced): −21.3% | Day 28 percentage change in PSA, median (PCA Locally advanced): −73.2% | Probability of no PSA failure [1]: 68.2% | Probability of no PSA failure [2]: 86.8% | median percentage change (reduction) in PSA from baseline (day 14): 61.7% | median percentage reduction in PSA from baseline (day 14): 15.3% | median percentage change (reduction) in PSA from baseline (day 28): 89.1% | median percentage reduction in PSA from baseline (day 28): 61.7% | probability of completing the study without experiencing PSA failure [3]: ~85.8%

CC(=O)N[C@H](Cc1ccc2ccccc2c1)C(=O)N[C@H](Cc1ccc(Cl)cc1)C(=O)N[C@H](Cc1cccnc1)C(=O)N[C@@H](CO)C(=O)N[C@@H](Cc1ccc(NC(=O)[C@@H]2CC(=O)NC(=O)N2)cc1)C(=O)N[C@H](Cc1ccc(NC(N)=O)cc1)C(=O)N[C@@H](CC(C)C)C(=O)N[C@@H](CCCCNC(C)C)C(=O)N1CCC[C@H]1C(=O)N[C@H](C)C(N)=O [Degarelix, D-Alaninamide, N-acetyl-3-(2-naphthalenyl)-D-alanyl-4-chloro-D-phenylalanyl-3-(3-pyridinyl)-D-alanyl-L-seryl-4-[[[(4S)-hexahydro-2,6-dioxo-4-pyrimidinyl]carbonyl]amino]-L phenylalanyl-4-[(aminocarbonyl)amino]-D-phenylalanyl-L leucyl-N6-(1-methylethyl)-L-lysyl-L-prolyl] (Ac-[d2Nal][dPhe(4-Cl)][d3Pal]S[Phe(4-NH2)](Dihydroorotyl(S))[dPhe(4-NHCONH2)]L[Lys(iPr)]P[dA]-NH2)
Day 14 percentage change in PSA, median (PCA = Localized): −50.6% | Day 28 percentage change in PSA, median (PCA = Localized): −75.0% | Day 14 percentage change in PSA, median (PCA = Metastatic): −77.9% | Day 28 percentage change in PSA, median (PCA = Metastatic): −89.9% | Day 14 percentage change in PSA, median (PCA Locally advanced): −66.6% | Day 28 percentage change in PSA, median (PCA Locally advanced): −84.1% | Probability of no PSA failure (age <65, degarelix 240/160@40): 71.6% | Probability of no PSA failure [1]: 85.2% | Probability of no PSA failure (age >=75, degarelix 240/160@40): 94.5% | Probability of no PSA failure [2]: 96.6% | probability of a PSA observation from the pooled degarelix groups being less than one from the leuprolide 7.5 mg group (day 14): 0.82 | probability of a PSA observation from the pooled degarelix groups being less than one from the leuprolide 7.5 mg group (day 28): 0.70 | probability of completing the study without experiencing PSA failure [3]: 91.2% | probability of completing the study without experiencing PSA failure (degarelix 240/160 mg): ~85.8%
